Assay results as given in patent US6814969B2, “Immunologically significant herpes simplex virus antigens and methods for using same” (University of Washington, priority 2001, dated 2004).
Starred links: 1 amine or outer side, 2 acyl side, 3 side chain; linkers in the order of their positions; H or OH if unused. Positions of bridges follow the written chain, without caps; N, C: chain ends. Non-standard residues stand in square brackets, D forms with d. Residues, ends and D or L forms follow the SMILES beside them. Chains are numbered I, II in the order given. Actinocin(9to1) = Cc1c2oc3c(C)ccc(C(=O)[*:1])c3nc-2c(C(=O)[*:2])c(N)c1=O; NMeV = CN[C@H](C(=O)O)C(C)C; Sar = CNCC(=O)O

How the values were obtained:
[1] = tested on: CD8 CTL clone 5491.2000.48; test: 51Cr release CTL assay, CD8 clone 5491.2000.48; format: cell-based, human; conditions: autologous targets infected with wild-type HSV-2 in the presence of 5 μg/ml actinomycin D, E:T 20:1
[2] = tested on: CD8 CTL clone 5101.1999.23; test: 51Cr release CTL assay, CD8 clone 5101.1999.23; format: cell-based, human; conditions: autologous targets infected with wild-type HSV-2 in the presence of 5 μg/ml actinomycin D, E:T 20:1
[3] = tested on: CD8 CTL clone 1874.1991.22; test: 51Cr release CTL assay, CD8 clone 1874.1991.22; format: cell-based, human; conditions: autologous targets infected with wild-type HSV-2 in the presence of 5 μg/ml actinomycin D, E:T 20:1
CD4+ T cell clone = test: Reactivity with a CD4+ T cell clone (HLA DRBI*1501); format: cell-based, human; conditions: in association with HLA class II molecule DRBI*1501
From the text: This epitope is recognized in association with the HLA class II molecule DRBI*1501, which is fairly prevalent in most human populations.

TCC BM.17 [4] = test: Cytolysis assay (4-hour 51Cr release), CD4 TCC BM.17; format: cell-based, human; conditions: autologous EBV-LCL targets, HSV-2 infected or 1 μM peptide, E:T 20:1
Description: (§1) Cytolysis assays were performed in triplicate using 4-hour [^51]Cr release as described (D. M. Koelle et al., 1993, J. Clin. Invest., 91:961-968). […] W. Kwok et al., 1996,J. Exp. Med., 183:1253-1258). The effector to target ratio was 20:1. Spontaneous release was less than 28%.

TCC SB.17 [5] = test: Cytolysis assay (4-hour 51Cr release), CD4 TCC SB.17; format: cell-based, human; conditions: autologous EBV-LCL targets, HSV-2 infected or 1 μM peptide, E:T 20:1
Description: as §1

TCC SB.17 [6] = test: T-cell proliferation, TCC SB.17; format: cell-based, human; conditions: VP16 1-492 at 1 μg/ml, β-gal-VP16 180-492 at 1:1,000, peptides at 1 μM
Description: (§2) Triplicate proliferation assay wells contained 10^4 cloned T-cells, 10^5 irradiated (3300 rad) PBMC or 2.5×10^4 irradiated (8000 rad) EBV-LCL as antigen presenting cells (APC), and antigen in 200 μl T-cell media (D. M. Koelle et al., 1997, Human. Immunol., 53:195-205) in 96-well U-bottom plates. When heat-killed bacteria were used as antigen, the equivalent of 10^5 cfu/well (prior to inactivation) was added and gentamicin (20 μg/ml) was included. After 72 hours, 1 μCi/well ^[3]H thymidine was added for 18 hours, cells were harvested, and incorporation of thymidine evaluated by liquid scintillation counting. Standard deviations were less than 10% of the mean values. Results are reported as mean cpm or as delta cpm=mean cpm for experimental antigen minus mean cpm for control antigen. Control antigen was mock-infected cell lysate for whole viral antigens and pUEX2-derived β-galactosidase for recombinant protein preparations. […]
(§3) Three epitopes within VP16, all HSV-2 type-specific were previously identified (K. R. Jerome et al., 1998, J. Virol., 72:436-441), and proliferative responses to full-length VP16 in bulk cultures of genital HSV-2 lesion-infiltrating lymphocytes from four of seven (57%) patients were detected (D. M. Koelle et al., 1998, J. Clin. Invest., 101:1500-09). […]

TCC BM.17 [7] = test: T-cell proliferation, TCC BM.17; format: cell-based, human; conditions: VP16 1-492 at 1 μg/ml, β-gal-VP16 180-492 at 1:1,000, peptides at 1 μM
Description: as §2, §3

[8] = tested on: genital HSV-2 lesion-infiltrating lymphocytes; conditions: four of seven patients; Koelle et al., 1998; cited from earlier work
B1 cell line = test: Proliferation of short-term HSV-specific B1 cell lines from seven HSV-2 infected adults; format: cell-based, human; conditions: seven HSV-2 infected immunocompetent adults; positive = stimulation index >= 4.0
Description: For each subject, PBMC were isolated and plated at 2×10^6 cells/well in 2 mls of T-cell medium in 24-well plates and stimulated in vitro with a 1:500 dilution of UV-inactivated HSV-2 strain 333 for five days. At that time, 40 units/ml recombinant human IL-2 was added for an additional five to six days, giving rise to a short-term, HSV-specific cell line termed a B1 cell line.
Reactivity to individual HSV-2 proteins was assessed as follows. Proliferation assays were set up on 96-well round bottom microtiter plates, and each condition was performed in triplicate. To each well, 1×10^5 autologous irradiated (3300 rad gamma) PBMC were added as antigen presenting cells. To each well, 1×10^4 B1 cells were added. The following control substances were added: media, UV-treated mock virus preparation diluted 1:500, UV-treated HSV-2 strain 333 diluted 1:500, glycoproteins B or D or VP16 protein of HSV-2 (purified) at 4 micrograms per ml final concentration. The response to UV-treated HSV-2 was expected to be positive and served as a positive control for the viability and overall specificity of the cells. […]
Positive responses were scored if the stimulation index (mean cpm ^3H thymidine incorporation for test antigen/mean cpm ^3H thymidine incorporation for relevant control antigen) was greater than or equal to 4.0. […]

In the case of Cc1c2oc3c(C)ccc(C(=O)N[C@@H]4C(=O)N[C@H](C(C)C)C(=O)N5CCC[C@H]5C(=O)N(C)CC(=O)N(C)[C@@H](C(C)C)C(=O)O[C@@H]4C)c3nc-2c(C(=O)N[C@@H]2C(=O)N[C@H](C(C)C)C(=O)N3CCC[C@H]3C(=O)N(C)CC(=O)N(C)[C@@H](C(C)C)C(=O)O[C@@H]2C)c(N)c1=O [actinomycin D] (I: T[dV]P[Sar][NMeV] / II: T[dV]P[Sar][NMeV]; ester I:1-I:C, II:1-II:C; linker I:N-II:N via Actinocin(9to1)), the percent specific release [1] is reported as 49.2%, the percent specific release [2] is reported as 35.8% and the percent specific release [3] is reported as 45.1%.

For RLRELNHIREHLNLPLVRSA [VP16 288-307], the “reactivity with a CD4+ T cell clone” value (CD4+ T cell clone) was “reactivity”.

For “VP16 437-449: HSV-2 VP16 (UL48) peptide, amino acids 437-449 (ADALDDFDLEMLG; UniProt P68336 437-449, looked up, fragment)”, the percent specific release (TCC BM.17 [4]) was 28.5%, the percent specific release (TCC SB.17 [5]) was 60.6% and the “delta cpm [3H] thymidine incorporation compared to media” value (TCC SB.17 [6]) was 36,442 cpm. The “delta cpm [3H] thymidine incorporation compared to media” value (TCC BM.17 [7]) was 79,723 cpm.

B1: VP16 of HSV-2: VP16 protein of HSV-2 (purified) (protein)
chain: MDLLVDDLFADADGVSPPPPRPAGGPKNTPAAPPLYATGRLSQAQLMPSPPMPVPPAALFNRLLDDLGFSAGPALCTMLDTWNEDLFSGFPTNADMYRECKFLSTLPSDVIDWGDAHVPERSPIDIRAHGDVAFPTLPATRDELPSYYEAMAQFFRGELRAREESYRTVLANFCSALYRYLRASVRQLHRQAHMRGRNRDLREMLRTTIADRYYRETARLARVLFLHLYLFLSREILWAAYAEQMMRPDLFDGLCCDLESWRQLACLFQPLMFINGSLTVRGVPVEARRLRELNHIREHLNLPLVRSAAAEEPGAPLTTPPVLQGNQARSSGYFMLLIRAKLDSYSSVATSEGESVMREHAYSRGRTRNNYGSTIEGLLDLPDDDDAPAEAGLVAPRMSFLSAGQRPRRLSTTAPITDVSLGDELRLDGEEVDMTPADALDDFDLEMLGDVESPSPGMTHDPVSYGALDVDDFEFEQMFTDAMGIDDFGG
In the case of B1, the “patients with proliferative responses in bulk cultures of lesion-infiltrating lymphocytes” value [8] is given as 57%, the “% (subjects with positive response)” value (B1 cell line) is given as 0% and the “n (subjects with positive response)” value (B1 cell line) is given as 0.
